Test results reported in ChEMBL document CHEMBL4414672, “Synthesis of certain benzothieno[3,2-d]pyrimidine derivatives as a selective SIRT2 inhibitors” (Eur J Med Chem, 2020).

Legend:
Assay type in all cases: functional
RXF 393 = assay: Growth inhibition of human RXF393 cells at 10^-5 M incubated for 48 hrs by sulforhodamine B assay; details: RXF 393, 48 h, read-out: GI
MOLT-4 = assay: Growth inhibition of human MOLT4 cells at 10^-5 M incubated for 48 hrs by sulforhodamine B assay; details: MOLT-4, 48 h, read-out: GI
SW-620 = assay: Growth inhibition of human SW620 cells at 10^-5 M incubated for 48 hrs by sulforhodamine B assay; details: SW-620, 48 h, read-out: GI
NCI-H522 = assay: Growth inhibition of human NCI-H522 cells at 10^-5 M incubated for 48 hrs by sulforhodamine B assay; details: NCI-H522, 48 h, read-out: GI
TK-10 = assay: Growth inhibition of human TK10 cells at 10^-5 M incubated for 48 hrs by sulforhodamine B assay; details: TK-10, 48 h, read-out: GI
Malme-3M = assay: Growth inhibition of human MALME-3M cells at 10^-5 M incubated for 48 hrs by sulforhodamine B assay; details: read-out: GI
SF-268 = assay: Growth inhibition of human SF268 cells at 10^-5 M incubated for 48 hrs by sulforhodamine B assay; details: SF-268, 48 h, read-out: GI
SK-MEL-28 = assay: Growth inhibition of human SK-MEL-28 cells at 10^-5 M incubated for 48 hrs by sulforhodamine B assay; details: SK-MEL-28, 48 h, read-out: GI
DU-145 = assay: Growth inhibition of human DU145 cells at 10^-5 M incubated for 48 hrs by sulforhodamine B assay; details: DU-145, 48 h, read-out: GI
NCI-H460 = assay: Growth inhibition of human NCI-H460 cells at 10^-5 M incubated for 48 hrs by sulforhodamine B assay; details: NCI-H460, 48 h, read-out: GI
SK-OV-3 = assay: Growth inhibition of human SKOV3 cells at 10^-5 M incubated for 48 hrs by sulforhodamine B assay; details: SK-OV-3, 48 h, read-out: GI
M14 = assay: Growth inhibition of human M14 cells at 10^-5 M incubated for 48 hrs by sulforhodamine B assay; details: M14, 48 h, read-out: GI
OVCAR-5 = assay: Growth inhibition of human OVCAR5 cells at 10^-5 M incubated for 48 hrs by sulforhodamine B assay; details: OVCAR-5, 48 h, read-out: GI
NCI-H23 = assay: Growth inhibition of human NCI-H23 cells at 10^-5 M incubated for 48 hrs by sulforhodamine B assay; details: NCI-H23, 48 h, read-out: GI
HCT-15 = assay: Growth inhibition of human HCT15 cells at 10^-5 M incubated for 48 hrs by sulforhodamine B assay; details: HCT-15, 48 h, read-out: GI
CCRF-CEM = assay: Growth inhibition of human CCRF-CEM cells at 10^-5 M incubated for 48 hrs by sulforhodamine B assay; details: read-out: GI
ACHN = assay: Growth inhibition of human ACHN cells at 10^-5 M incubated for 48 hrs by sulforhodamine B assay; details: read-out: GI
NCI/ADR-RES = assay: Growth inhibition of human NCI/ADR-RES cells at 10^-5 M incubated for 48 hrs by sulforhodamine B assay; details: read-out: GI
T47D = assay: Growth inhibition of human T47D cells at 10^-5 M incubated for 48 hrs by sulforhodamine B assay; details: read-out: GI
A498 = assay: Growth inhibition of human A498 cells at 10^-5 M incubated for 48 hrs by sulforhodamine B assay; details: A498, 48 h, read-out: GI
HL-60(TB) = assay: Growth inhibition of human HL-60(TB) cells at 10^-5 M incubated for 48 hrs by sulforhodamine B assay; details: HL-60, 48 h, read-out: GI
SF-295 = assay: Growth inhibition of human SF295 cells at 10^-5 M incubated for 48 hrs by sulforhodamine B assay; details: SF-295, 48 h, read-out: GI
SNB-19 = assay: Growth inhibition of human SNB19 cells at 10^-5 M incubated for 48 hrs by sulforhodamine B assay; details: SNB-19, 48 h, read-out: GI
A549 = assay: Growth inhibition of human A549/ATCC cells at 10^-5 M incubated for 48 hrs by sulforhodamine B assay; details: A549, 48 h, read-out: GI
OVCAR-3 = assay: Growth inhibition of human OVCAR3 cells at 10^-5 M incubated for 48 hrs by sulforhodamine B assay; details: OVCAR-3, 48 h, read-out: GI
UACC-62 = assay: Growth inhibition of human UACC62 cells at 10^-5 M incubated for 48 hrs by sulforhodamine B assay; details: UACC-62, 48 h, read-out: GI
MCF7 = assay: Growth inhibition of human MCF7 cells at 10^-5 M incubated for 48 hrs by sulforhodamine B assay; details: MCF7, 48 h, read-out: GI
NCI-H322M = assay: Growth inhibition of human NCI-H322M cells at 10^-5 M incubated for 48 hrs by sulforhodamine B assay; details: read-out: GI
HCT-116 = assay: Growth inhibition of human HCT116 cells at 10^-5 M incubated for 48 hrs by sulforhodamine B assay; details: HCT-116, 48 h, read-out: GI
786-0 = assay: Growth inhibition of human 786-0 cells at 10^-5 M incubated for 48 hrs by sulforhodamine B assay; details: 786-0, 48 h, read-out: GI
SN12C = assay: Growth inhibition of human SN12C cells at 10^-5 M incubated for 48 hrs by sulforhodamine B assay; details: read-out: GI
SK-MEL-5 = assay: Growth inhibition of human SK-MEL-5 cells at 10^-5 M incubated for 48 hrs by sulforhodamine B assay; details: SK-MEL-5, 48 h, read-out: GI
LOX IMVI = assay: Growth inhibition of human LOXIMVI cells at 10^-5 M incubated for 48 hrs by sulforhodamine B assay; details: read-out: GI
SNB-75 = assay: Growth inhibition of human SNB75 cells at 10^-5 M incubated for 48 hrs by sulforhodamine B assay; details: SNB-75, 48 h, read-out: GI
OVCAR-8 = assay: Growth inhibition of human OVCAR8 cells at 10^-5 M incubated for 48 hrs by sulforhodamine B assay; details: OVCAR-8, 48 h, read-out: GI
IGROV-1 = assay: Growth inhibition of human IGROV1 cells at 10^-5 M incubated for 48 hrs by sulforhodamine B assay; details: IGROV-1, 48 h, read-out: GI
SR = assay: Growth inhibition of human SR cells at 10^-5 M incubated for 48 hrs by sulforhodamine B assay; details: read-out: GI
Hs-578T = assay: Growth inhibition of human Hs 578T cells at 10^-5 M incubated for 48 hrs by sulforhodamine B assay; details: read-out: GI
MDA-MB-231 = assay: Growth inhibition of human MDA-MB-231 cells at 10^-5 M incubated for 48 hrs by sulforhodamine B assay; details: MDA-MB-231, 48 h, read-out: GI

SMILES | inhibition of growth at 10 µM (RXF 393) [%] | inhibition of growth at 10 µM (MOLT-4) [%] | inhibition of growth at 10 µM (SW-620) [%] | inhibition of growth at 10 µM (NCI-H522) [%] | inhibition of growth at 10 µM (TK-10) [%] | inhibition of growth at 10 µM (Malme-3M) [%] | inhibition of growth at 10 µM (SF-268) [%] | inhibition of growth at 10 µM (SK-MEL-28) [%] | inhibition of growth at 10 µM (DU-145) [%] | inhibition of growth at 10 µM (NCI-H460) [%] | inhibition of growth at 10 µM (SK-OV-3) [%] | inhibition of growth at 10 µM (M14) [%] | inhibition of growth at 10 µM (OVCAR-5) [%] | inhibition of growth at 10 µM (NCI-H23) [%] | inhibition of growth at 10 µM (HCT-15) [%] | inhibition of growth at 10 µM (CCRF-CEM) [%] | inhibition of growth at 10 µM (ACHN) [%] | inhibition of growth at 10 µM (NCI/ADR-RES) [%] | inhibition of growth at 10 µM (T47D) [%] | inhibition of growth at 10 µM (A498) [%] | other results
S=C1Nc2c(sc3ccc(Cl)cc23)C(c2cccc(Br)c2)N1 (stereo not drawn) | -7.19 | 11.5 | -1.6 | 12 | -18.3 | -1 | 1.41 | -15.7 | -11.9 | 7.39 | 10.4 | 6.42 | -0.03 | 12.2 | 0.95 | -16.1 | 4.77 | -3.15 | 24.5 | 31.7 | inhibition of growth at 10 µM (HL-60(TB)): -6.42%; inhibition of growth at 10 µM (SF-295): 1%; inhibition of growth at 10 µM (SNB-19): 2.38%; inhibition of growth at 10 µM (A549): -7.88%; inhibition of growth at 10 µM (OVCAR-3): -0.26%; inhibition of growth at 10 µM (UACC-62): 13%; inhibition of growth at 10 µM (MCF7): -11.9%; inhibition of growth at 10 µM (NCI-H322M): 5.66%; inhibition of growth at 10 µM (HCT-116): 10.9%; inhibition of growth at 10 µM (786-0): -0.33%; inhibition of growth at 10 µM (SN12C): 2.82%; inhibition of growth at 10 µM (SK-MEL-5): 3.95%; inhibition of growth at 10 µM (LOX IMVI): -0.61%; inhibition of growth at 10 µM (SNB-75): 18.5%; inhibition of growth at 10 µM (OVCAR-8): 3.39%; inhibition of growth at 10 µM (IGROV-1): 22.6%; inhibition of growth at 10 µM (SR): 16.3%; inhibition of growth at 10 µM (Hs-578T): 4.32%; inhibition of growth at 10 µM (MDA-MB-231): 9.68%
O=C1/C(=C\c2ccccc2O)Sc2ccc(Cl)cc21 | -3.05 | 11.4 | -11.4 | 5.61 | -16 | 4.11 | 5.86 | -14.6 | -12.3 | -8.83 | 5.06 | 0.22 | -0.88 | 11.7 | -7.07 | -1.92 | 2.5 | 6.5 | 22.2 | 3.49 | inhibition of growth at 10 µM (HL-60(TB)): -1.87%; inhibition of growth at 10 µM (SF-295): -6.81%; inhibition of growth at 10 µM (SNB-19): -7.92%; inhibition of growth at 10 µM (A549): -0.44%; inhibition of growth at 10 µM (OVCAR-3): -11.6%; inhibition of growth at 10 µM (UACC-62): 22.3%; inhibition of growth at 10 µM (MCF7): -12.3%; inhibition of growth at 10 µM (NCI-H322M): 10.4%; inhibition of growth at 10 µM (HCT-116): 10%; inhibition of growth at 10 µM (786-0): -0.39%; inhibition of growth at 10 µM (SN12C): 5.15%; inhibition of growth at 10 µM (SK-MEL-5): 4.61%; inhibition of growth at 10 µM (LOX IMVI): 9.63%; inhibition of growth at 10 µM (SNB-75): 22.3%; inhibition of growth at 10 µM (OVCAR-8): 1.53%; inhibition of growth at 10 µM (IGROV-1): 0.45%; inhibition of growth at 10 µM (SR): 26.2%; inhibition of growth at 10 µM (Hs-578T): 3.91%; inhibition of growth at 10 µM (MDA-MB-231): 11%
